# Assay results: patent US20050090529A1, “3,5 Disubstituted indazole compounds with nitrogen-bearing 5-membered heterocycles, pharmaceutical compositions, and methods for mediating or inhibiting cell proliferation” (PFIZER INC, priority 2003, published 2005)
# Tests used:
# CDK2/Cyclin A = molecular target: T1, CDK2/Cyclin A (Homo sapiens, UniProt P24941); assay: Inhibition of CDK2/Cyclin A retinoblastoma kinase activity (apparent Ki); assay type: biochemical; conditions: read-out: CDK2 Ki
# T1 construct: made in house; host or cells: CDK2: insect cells (baculovirus); cyclin A: E. coli
# Protocol: Cyclin-dependent kinase activity was measured by quantifying the enzyme-catalyzed, time-dependent incorporation of radioactive phosphate from [^32P]ATP or [^33P]ATP into a protein substrate. […] Reactions were initiated with enzyme, incubated at 30° C., and terminated after 20 minutes by the addition of ethylenediaminetetraacetic acid (EDTA) to 250 mM. […] Radioactivity was quantified by exposing the dried membranes to a phosphorimager.
# Apparent Ki values were measured by assaying enzyme activity in the presence of different inhibitor compound concentrations and subtracting the background radioactivity measured in the absence of enzyme. Inhibition data were fit to an equation for competitive inhibition using Kaleidagraph (Synergy Software), or were fit to an equation for competitive tight-binding inhibition using the software KineTic (BioKin, Ltd.).
# A complex of CDK2 and proteolyzed cyclin A was prepared and purified by gel filtration. […] Ki values were measured as described above.
# [1] = Measurement of kinetic solubility; conditions: 100 mM sodium phosphate buffer, pH 6.5, aqueous buffer, kinetic from dmso stock
# Protocol: Kinetic solubility was determined with a […] stock solution from the compound(s) of interest. […] Samples and standards were then centrifuged and an aliquot was removed for HPLC analysis. Samples and standards were analyzed by HPLC and a final concentration for the sample was determined based on a one-point calibration curve from the corresponding standard. Results were reported as μg's/mL.
Structure (SMILES),Ki (CDK2/Cyclin A) [nM],solubility [1] [µg/mL]
"CCNCc1cncc(-c2ccc3[nH]nc(-c4ncc[nH]4)c3c2)c1C [Example 1, 5-(5-ethylaminomethyl-4-methylpyridin-3-yl)-3-(1H-imidazol-2-yl)-1H-indazole]",< 50,> 120
"CCOCc1cncc(-c2ccc3[nH]nc(-c4ncc[nH]4)c3c2)c1C [Example 44, 5-(5-Ethoxymethyl-4-methyl-pyridin-3-yl)-3-(1H-imidazol-2-yl)-1H-indazole]",50 to 200,> 120
"CCNCc1cncc(-c2ccc3[nH]nc(-c4ncc(C(=O)N5CCN(c6ccc(F)cc6F)CC5)[nH]4)c3c2)c1C [Example 69, N-({5-[3-(5-{[4-(2,4-difluorophenyl)piperazin-1-yl]carbonyl}-1H-imidazol-2-yl)-1H-indazol-5-yl]-4-methylpyridin-3-yl}methyl)ethanamine]",< 50,20 to 120
"CCCc1nc(-c2n[nH]c3ccc(-c4cncc(CNCC)c4C)cc23)[nH]c1C [Example 19, Ethyl-{4-methyl-5-[3-(5-methyl-4-propyl-1H-imidazol-2-yl)-1H-indazol-5-yl]-pyridin-3-ylmethyl}-amine]",< 50,20 to 120
"CCNCc1cncc(-c2ccc3[nH]nc(-c4nc(C(=O)NCc5cccnc5)c[nH]4)c3c2)c1C [Example 49, 2-(5-{5-[(ethylamino)methyl]-4-methylpyridin-3-yl}-1H-indazol-3-yl)-N-(pyridin-3-ylmethyl)-1H-imidazole-5-carboxamide]",< 50,> 120
"CCNCc1cncc(-c2ccc3[nH]nc(-c4ncc(C(=O)N[C@@H]5CCc6ccccc65)[nH]4)c3c2)c1C [Example 51, N-[(1R)-2,3-dihydro-1H-inden-1-yl]-2-(5-{5-[(ethylamino)methyl]-4-methylpyridin-3-yl}-1H-indazol-3-yl)-1H-imidazole-5-carboxamide]",< 50,20 to 120
"CCNCc1cncc(-c2ccc3[nH]nc(-c4nc(-c5ccccc5)c(C(=O)NCCCOC)[nH]4)c3c2)c1C [Example 11, 2-[5-(5-Ethylaminomethyl-4-methyl-pyridin-3-yl)-1H-indazol-3-yl]-5-phenyl-3H-imidazole-4-carboxylic acid (3-methoxy-propyl)-amide]",50 to 200,> 120
"CCNCc1cncc(-c2ccc3[nH]nc(-c4nc(C(=O)NC5CCNCC5)c[nH]4)c3c2)c1C [Example 76, 2-(5-{5-[(ethylamino)methyl]-4-methylpyridin-3-yl}-1H-indazol-3-yl)-N-piperidin-4-yl-1H-imidazole-5-carboxamide]",50 to 200,> 120
"CCNCc1cncc(-c2ccc3[nH]nc(-c4nc(-c5ccccc5)c(C(=O)NCCOC)[nH]4)c3c2)c1C [Example 3, 2-[5-(5-Ethylaminomethyl-4-methyl-pyridin-3-yl)-1H-indazol-3-yl]-5-phenyl-3H-imidazol-4-carboxylic acid (2-methoxy-ethyl)-amide]",50 to 200,20 to 120
"CCNCc1cncc(-c2ccc3[nH]nc(-c4nc(-c5ccccc5)c(C(=O)NCc5ccccc5)[nH]4)c3c2)c1C [Example 5, 2-[5-(5-Ethylaminomethyl-4-methyl-pyridin-3-yl)-1H-indazol-3-yl]-5-phenyl-3H-imidazole-4-carboxylic acid benzylamide]",< 50,20 to 120
"CCNCc1cncc(-c2ccc3[nH]nc(-c4nc(C(=O)NC5CCCCC5)c[nH]4)c3c2)c1C [Example 50, N-cyclohexyl-2-(5-{5-[(ethylamino)methyl]-4-methylpyridin-3-yl}-1H-indazol-3-yl)-1H-imidazole-5-carboxamide]",< 50,20 to 120
"CCNCc1cncc(-c2ccc3[nH]nc(-c4nc(-c5ccccc5)c(C(=O)N5CCOCC5)[nH]4)c3c2)c1C [Example 10, {2-[5-(5-Ethylaminomethyl-4-methyl-pyridin-3-yl)-1H-indazol-3-yl]-5-phenyl-3H-imidazol-4-yl}-morpholin-4-yl-methanone]",> 200,20 to 120
"CCNCc1cncc(-c2ccc3[nH]nc(-c4ncc(C(=O)N5CCCC5)[nH]4)c3c2)c1C [Example 61, N-[(4-methyl-5-{3-[5-(pyrrolidin-1-ylcarbonyl)-1H-imidazol-2-yl]-1H-indazol-5-yl}pyridin-3-yl)methyl]ethanamine]",< 50,20 to 120
"Cc1c(CNC(C)C)cncc1-c1ccc2[nH]nc(-c3ncc[nH]3)c2c1 [Example 48, {5-[3-(1H-Imidazol-2-yl)-1H-indazol-5-yl]-4-methyl-pyridin-3-ylmethyl}-isopropyl-amine]",< 50,> 120
"CCNCc1cncc(-c2ccc3[nH]nc(-c4ncc(C(=O)N5Cc6ccccc6C5)[nH]4)c3c2)c1C [Example 68, N-[(5-{3-[5-(1,3-dihydro-2H-isoindol-2-ylcarbonyl)-1H-imidazol-2-yl]-1H-indazol-5-yl}-4-methylpyridin-3-yl)methyl]ethanamine]",< 50,< 20
"CCNCc1cncc(-c2ccc3[nH]nc(-c4ncc(C(=O)NC5C6CC7CC(C6)CC5C7)[nH]4)c3c2)c1C (centres unmarked) [Example 72, N-2-adamantyl-2-(5-{5-[(ethylamino)methyl]-4-methylpyridin-3-yl}-1H-indazol-3-yl)-1H-imidazole-5-carboxamide]",< 50,< 20
"CCNCc1cncc(-c2ccc3[nH]nc(C(N)=O)c3c2)c1C [Example 97, 5-(5-Ethylaminomethyl-4-methyl-pyridin-3-yl)-1H-indazole-3-carboxylic acid amide]",50 to 200,> 120
"CCNCc1cncc(-c2ccc3[nH]nc(-c4nc(C)c(C)[nH]4)c3c2)c1C [Example 24, {5-[3-(4,5-Dimethyl-1H-imidazol-2-yl)-1H-indazol-5-yl]-4-methyl-pyridin-3-ylmethyl}-ethyl-amine]",< 50,> 120
"CCNCc1cncc(-c2ccc3[nH]nc(-c4nc(-c5ccccc5)c(C(=O)N5CCCC5)[nH]4)c3c2)c1C [Example 4, {2-[5-(5-Ethylaminomethyl-4-methyl-pyridin-3-yl)-1H-indazol-3-yl]-5-phenyl-3H-imidazol-4-yl}-pyrrolidin-1-yl-methanone]",50 to 200,20 to 120
"CCNCc1cncc(-c2ccc3[nH]nc(-c4ncc(C(=O)N5CCC6CCCCC6C5)[nH]4)c3c2)c1C (centres unmarked) [Example 71, N-[(4-methyl-5-{3-[5-(octahydroisoquinolin-2(1H)-ylcarbonyl)-1H-imidazol-2-yl]-1H-indazol-5-yl}pyridin-3-yl)methyl]ethanamine]",< 50,20 to 120
"CCNCc1cncc(-c2ccc3[nH]nc(-c4nc(-c5ccccc5)c(C(=O)NCC)[nH]4)c3c2)c1C [Example 2, 2-[5-(5-Ethylaminomethyl-4-methyl-pyridin-3-yl)-1H-indazol-3-yl]-5-phenyl-3H-imidazole-4-carboxylic acid ethylamide]",50 to 200,20 to 120
"CCNCc1cncc(-c2ccc3[nH]nc(-c4nc(C(=O)N5CCCCC5)c[nH]4)c3c2)c1C [Example 62, N-[(4-methyl-5-{3-[5-(piperidin-1-ylcarbonyl)-1H-imidazol-2-yl]-1H-indazol-5-yl}pyridin-3-yl)methyl]ethanamine]",< 50,> 120
"c1ncc(-c2n[nH]c3ccc(-c4cncc5[nH]ccc45)cc23)[nH]1 [Example 95, 3-(3H-Imidazol-4-yl)-5-(1H-pyrrolo[2,3-c]pyridin-4-yl)-1H-indazole]",< 50,20 to 120
"CCNCc1cncc(-c2ccc3[nH]nc(-c4ncc(C(=O)N5CCOCC5)[nH]4)c3c2)c1C [Example 55, N-[(4-methyl-5-{3-[5-(morpholin-4-ylcarbonyl)-1H-imidazol-2-yl]-1H-indazol-5-yl}pyridin-3-yl)methyl]ethanamine]",< 50,> 120
"CCNCc1cncc(-c2ccc3[nH]nc(-c4nc(-c5ccc(Cl)cc5)c(C)[nH]4)c3c2)c1C [Example 25, (5-{3-[4-(4-Chloro-phenyl)-5-methyl-1H-imidazol-2-yl]-1H-indazol-5-yl}-4-methyl-pyridin-3-ylmethyl)-ethyl-amine]",< 50,20 to 120
"CCNCc1cncc(-c2ccc3[nH]nc(-c4nc(C(=O)NC(C)C)c[nH]4)c3c2)c1C [Example 64, 2-(5-{5-[(ethylamino)methyl]-4-methylpyridin-3-yl}-1H-indazol-3-yl)-N-isopropyl-1H-imidazole-5-carboxamide]",< 50,> 120
"COCc1cncc(-c2ccc3[nH]nc(-c4ncc[nH]4)c3c2)c1C [Example 42, 3-(1H-Imidazol-2-yl)-5-(5-methoxymethyl-4-methyl-pyridin-3-yl)-1H-indazole]",50 to 200,> 120
"CCNCc1cncc(-c2ccc3[nH]nc(-c4nc(-c5ccccc5)c(C(=O)NC5CCCC5)[nH]4)c3c2)c1C [Example 8, 2-[5-(5-Ethylaminomethyl-4-methyl-pyridin-3-yl)-1H-indazol-3-yl]-5-phenyl-3H-imidazole-4-carboxylic acid cyclopentylamide]",50 to 200,20 to 120
